Values of other authors in patent US20100262098A1, “ABSORBENT ARTICLE WITH ODOUR CONTROL SUBSTANCE” (SCA Hygiene Products AB, priority 2007, published 2010).

Conditions: autoxidation at 100° C.; not treated with antioxidants

Row | Compound | Relative rate of oxidation
1 | CCCCC/C=C\C/C=C\CCCCCCCC(=O)O [Linoleic acid] | 64
2 | CCCCCCCC/C=C\CCCCCCCC(=O)O [Oleic acid] | 6
3 | CCCCCCCCCCCCCCCCCC(=O)O [Stearic acid] | 0.6
